Measurements reported in patent publication US6025385A, “Taxane derivatives and drugs containing the same” (Kabushiki Kaisha Yakult Honsha, priority 1996, dated 2000).
In brackets after ≈: the same amount, converted by molar mass. Read-outs that look alike come from different tables or passages of the source.

Experiments:
[1] = Solubility in water (HPLC, shaken 2 hours at room temperature); conditions: for Dissolved amount (Y): amount in 5 μl injected, purified water with 0.1 N hydrochloric acid, room temperature, 2 hours; for solubility thermodynamic at 2 h: water with 0.1 n hcl
Method: I) Preparation of calibration curves:
Using 20 μl portions of the standard solutions, tests were conducted by HPLC (operation conditions 1).
[HPLC operation conditions 1]
Column: Inertsil ODS-2 (5-250), 40 deg.
Mobile phase: 0.01 M KH2 PO4 --CH3 CN (5:4).
Detection: Ultraviolet absorption photometer (225 nm), 0.08AUFS.
To the respective suspensions, 0.1 N hydrochloric acid was added in amounts of 35 λl and 30 μl (1.1 eq.). By ultrasonication the resulting mixtures were formed into uniform suspensions, which were then shaken at room temperature for 2 hours. The thus-obtained mixtures were filtered through membrane filters (0.22 pm), and the filtrates were provided as test solutions. Using 5 μl portions of the test solutions, tests were conducted by HPLC (operation conditions 1).
I) Preparation of calibration curve:
By ultra-sonication the suspension was formed into a uniform suspension, which was then shaken at room temperature for 2 hours.
Using 20 At of the standard solution, a test was conducted by HPLC (operation conditions 1).
Operation conditions for the HPLC operation were set as in Test 1.
By ultrasonication the resulting mixture was formed into a uniform suspension, which was then shaken at room temperature for 2 hours. The mixture was filtered through a membrane filter (0.22 pm), and the filtrate was provided as a test solution. Using 5 μl of the test solution, a test was conducted by HPLC (the above operation conditions).

[2] = test system: cell strain KB derived from a human mouth cancer; experiment: Growth inhibitory activity against KB cells (XTT assay); format: cell-based; conditions: for GI50: Homo sapiens, 72 h, read-out: 50% Growth Inhibitory Concentration (GI50), KB; for Activity ratio: KB GI50 relative to Taxol (Taxol = 1.0)
Method: Growth Inhibitory Activities of Taxane Derivatives (1)
As a cell strain KB derived from a human mouth cancer, one purchased from Dainippon Pharmaceutical Co., Ltd. and stored in a lyophilized form at The Central Research Center, Yakult Honsha Co., Ltd. was used. In Dulbeccols modefied Earglets medium containing 10% fetal bovine serum (product of NISSUI PHARMACEUTICAL CO., LTD.), the KB was maintenance-cultured under the following conditions: 5%, CO2 -air, 37° C.
Each compound was used by dissolving it at a concentration of 10 mg/ml in DMSO.
On Day-1, cells which were in a logarithmic growth phase were inoculated at 2,000 cells/100 μl/well on 96-well microtiter plates (Falcon #3072) by using a phenol-red-free culture medium with 10% fetal bovine serum contained therein (Dulbecco's molefied Eargle's medium (Sigma)), and were cultured overnight. On Day 0, the compounds each of which had been diluted to 0.03 to 10,000 ng/ml with the same culture medium were added in 100 μl aliquots to the individual wells, and the cells were cultured for 3 days. Three wells were used per each drug concentration. Each plate was provided with three blank wells containing only the culture medium and also with eight wells as a drug-untreated control.
Before use, XTT (Sigma) was dissolved at a concentration of 1 mg/me in each culture media which as free of serum. Phenodin methosulfate (Sigma) dissolved at a concentration of 5 mM in PBS was added to the resulting solution at a volume ratio of 1/200. To each well, the solution so prepared was added in an amount of 50 μl per well. Subsequent to culture for 4 hours, OD was measured at 450 nm by ELISA.
Calculation of 50% Growth Inhibitory Concentration (GI50)
GI50 was calculated by interpolation from a concentration-growth inhibition rate (GIR). GIR was determined in accordance with the following formula: [formula] Bibiography Scudiero D A, et al., Cacer Res., 48, 4827-4833, 1988.
1994 Report of The Anticancer Agent Screening Special Committee, "Cancers and Chemotherapy", 21, 1306-1307.

[3] = background statement; cited from earlier work
[4] = test system: ovarian cancer and breast cancer; conditions: Ann. int. Med. 111, 273, 1989; cited from earlier work
[5] = purified water with hydrochloric acid

SMILES	Dissolved amount (Y) [1] [μg/5 μl]	solubility at 2 h [1, 5] [µg/mL]	solubility thermodynamic at 2 h [1] [µg/mL]	GI50 ([2]; KB cells, 3 days culture, XTT) [ng/mL]	Activity ratio [2]	GI50 ([2]; KB) [ng/mL]	other results
CC(=O)O[C@@]12CO[C@@H]1C[C@H](O)[C@@]1(C)C(=O)[C@H](OC(=O)N3CCC(N(C)C)CC3)C3=C(C)[C@@H](OC(=O)[C@H](O)[C@@H](NC(=O)OC(C)(C)C)c4ccccc4)C[C@@](O)([C@@H](OC(=O)c4ccccc4)[C@H]21)C3(C)C [Compound 3, 13-O-[3-(tert-Butoxycarbonylamino)-2-hydroxy-3-phenylpropionyl]-10-O-(4-dimethylaminopiperidinocarbonyl)-10-deacetylbaccatin III]	6.31	1260 (≈ 1310 µM)	1260 (≈ 1310 µM)				
CC(=O)O[C@H]1C(=O)[C@@]2(C)[C@H]([C@H](OC(=O)c3ccccc3)[C@]3(O)C[C@H](OC(=O)[C@H](O)[C@@H](NC(=O)N4CCC(N5CCCCC5)CC4)c4ccccc4)C(C)=C1C3(C)C)[C@]1(OC(C)=O)CO[C@@H]1C[C@@H]2O [Compound 58, 13-O-[2-Hydroxy-3-phenyl-3-(4-piperidinopiperidinocarbonylamino)propionyl]baccatin III]	7.95	1590 (≈ 1680 µM)	1590 (≈ 1680 µM)				
CC(=O)O[C@@]12CO[C@@H]1C[C@H](O)[C@@]1(C)C(=O)[C@H](OC(=O)N3CCN(C)CC3)C3=C(C)[C@@H](OC(=O)[C@H](O)[C@@H](NC(=O)OC(C)(C)C)c4ccccc4)C[C@@](O)([C@@H](OC(=O)c4ccccc4)[C@H]21)C3(C)C [Compound 39, 13-O-[3-(tert-Butoxycarbonylamino)-2-hydroxy-3-phenylpropionyl]-10-O-(4-methylpiperazinocarbonyl)-10-deacetylbaccatin III]				0.59 (≈ 0.000632 µM)	3.4		
CC(=O)O[C@@]12CO[C@@H]1C[C@H](O)[C@@]1(C)C(=O)[C@H](OC(=O)N3CCC(N4CCCCC4)CC3)C3=C(C)[C@@H](OC(=O)[C@H](O)[C@@H](NC(=O)OC(C)(C)C)c4ccccc4)C[C@@](O)([C@@H](OC(=O)c4ccccc4)[C@H]21)C3(C)C [Compound 9, 13-O-[3-(tert-Butoxycarbonylamino)-2-hydroxy-3-phenylpropionyl]-10-O-(4-piperidinopiperidinocarbonyl)-10-deacetylbaccatin III]				0.78 (≈ 0.000778 µM)	2.6		
CCCN(CCC)C1CCN(C(=O)O[C@H]2C(=O)[C@@]3(C)[C@H]([C@H](OC(=O)c4ccccc4)[C@]4(O)C[C@H](OC(=O)[C@H](O)[C@@H](NC(=O)OC(C)(C)C)c5ccccc5)C(C)=C2C4(C)C)[C@]2(OC(C)=O)CO[C@@H]2C[C@@H]3O)CC1 [Compound 6, 13-O-[3-(tert-Butoxycarbonylamino)-2-hydroxy-3-phenylpropionyl]-10-O-(4-dipropylaminopiperidinocarbonyl)-10-deacetylbaccatin III]					2.7	0.73 (≈ 0.000717 µM)	
CCN1CCN(C(=O)O[C@H]2C(=O)[C@@]3(C)[C@H]([C@H](OC(=O)c4ccccc4)[C@]4(O)C[C@H](OC(=O)[C@H](O)[C@@H](NC(=O)OC(C)(C)C)c5ccccc5)C(C)=C2C4(C)C)[C@]2(OC(C)=O)CO[C@@H]2C[C@@H]3O)CC1 [Compound 42, 13-O-[3-(tert-Butoxycarbonylamino)-2-hydroxy-3-phenylpropionyl]-10-O-(4-ethylpiperazinocarbonyl)-10-deacetylbaccatin III]	5.90	1180 (≈ 1240 µM)	1180 (≈ 1240 µM)		3.1	0.65 (≈ 0.000686 µM)	
CC(=O)O[C@@]12CO[C@@H]1C[C@H](O)[C@@]1(C)C(=O)[C@H](OC(=O)N3CCN(CC(=O)NC(C)C)CC3)C3=C(C)[C@@H](OC(=O)[C@H](O)[C@@H](NC(=O)OC(C)(C)C)c4ccccc4)C[C@@](O)([C@@H](OC(=O)c4ccccc4)[C@H]21)C3(C)C [Compound 45, 13-O-[3-(tert-Butoxycarbonylamino)-2-hydroxy-3-phenylpropionyl]-10-O-[4-(isopropylaminocarbonylmethyl)piperazinocarbonyl]-10-deacetylbaccatin III]				0.86 (≈ 0.000844 µM)	2.3		
CC(=O)O[C@H]1C(=O)[C@@]2(C)[C@H]([C@H](OC(=O)c3ccccc3)[C@]3(O)C[C@H](OC(=O)[C@H](O)[C@@H](NC(=O)c4ccccc4)c4ccccc4)C(C)=C1C3(C)C)[C@]1(OC(C)=O)CO[C@@H]1C[C@@H]2O [Taxol, reference compound]						2 (≈ 0.00234 µM)	solubility at 2 h ([1]; purified water): 0.4 µg/mL (≈ 0.468 µM); solubility in water (in words) [3]: sparingly soluble in water; efficacy against ovarian cancer and breast cancer [4]: high efficacy against ovarian cancer and breast cancer
